# In PMC12084297, “Cytoplasmic connexin43-microtubule interactions promote glioblastoma stem-like cell maintenance and tumorigenicity” (Cell Death & Disease, 2025):
# What was measured:
# [1] = system: Cx43; experiment: Cx43 expression in co-IP input, immunoblot, VTC-037 GSCs; assay type: cell-based, human; conditions: 50 μM, 24 h
# Procedure: Cells were lysed in RIPA buffer (0.1% sodium dodecyl sulphate, 50 mM Tris pH 7.4, 150 mM NaCl, 1 mM EDTA, 1% Triton X-100, 1% deoxycholic acid, 200 μM Na3VO4, and 1 mM NaF) supplemented with Halt^TM Protease and Phosphatase Inhibitor Cocktail (Thermo Fisher). Lysates were sonicated prior to centrifugation at 4 °C for 20 min at 10,000 x g. Protein concentration was quantified using the DC protein assay (Bio-Rad Laboratories) and a standard curve obtained with increasing concentrations of Bovine Serum Albumin (BSA; Fisher Scientific). Protein samples were normalized to 20 μg total protein per lane and resolved by SDS-PAGE electrophoresis. 4X Bolt LDS sample buffer supplemented with 400 mM DTT (final concentration 1X Bolt LDS with 100 mM DTT) was added to samples before heating at 70 °C for 10 min. […] Membranes were imaged on a ChemiDoc™ imaging system, and analyzed with Image Lab software (Bio-Rad Laboratories). […]
# Prior to lysis, cross-linking was completed by incubating cells in DTBP (dimethyl 3,3’-dithiobispropionimidate; 2 mM in PBS) for 30 min at 37 °C followed by a glycine quench (100 mM glycine in PBS) for 15 min at room temperature. […] Protein concentration was quantified using the DC protein assay and a standard curve obtained with increasing concentrations of BSA, and 500 μg of total protein was used per reaction for co-IP. […]
# [2] = system: α-tubulin; experiment: Co-immunoprecipitation with α-tubulin antibody: peptide interaction with α-tubulin; assay type: binding, human; conditions: VTC-037 GSCs, 50 μM, 24 h, cross-linked (DTBP); compared to antennapedia alone or JM2-scrambled; NeutrAvidin-HRP detection
# Procedure: Prior to lysis, cross-linking was completed by incubating cells in DTBP (dimethyl 3,3’-dithiobispropionimidate; 2 mM in PBS) for 30 min at 37 °C followed by a glycine quench (100 mM glycine in PBS) for 15 min at room temperature. Cross-linked samples were lysed in RIPA buffer supplemented with Halt^TM Protease and Phosphatase Inhibitor Cocktail as described above, but without sonication. Co-immunoprecipitation (co-IP) assays were also performed without cross-linking; non-cross-linked samples were lysed using a co-IP lysis buffer (0.5% Triton X-100, 50 mM Tris HCl, 150 mM NaCl, 1 mM EDTA, 1 mM EGTA, 1 mM DTT, 0.1 mM Na3VO4, and 1 mM NaF) supplemented with Halt^TM Protease and Phosphatase Inhibitor Cocktail, without sonication. Protein concentration was quantified using the DC protein assay and a standard curve obtained with increasing concentrations of BSA, and 500 μg of total protein was used per reaction for co-IP. Inputs were removed prior to co-IP and denatured in Bolt LDS sample buffer as described above. Remaining protein lysates were incubated with Protein G Sepharose^TM 4 Fast Flow beads (GE Healthcare) for pre-clearance for 30 min at 4 °C. Samples were incubated with 2 μg of mouse anti-α-tubulin (MilliporeSigma, T6199) for cross-linked samples or mouse anti-Cx43 antibody (EMD Millipore; MAB3067) for non-cross-linked samples for 90 min at 4 °C. […]
sequence,measurement,setting,value
VFFKGVKDRVKGRSD [JM2],Cx43 expression (co-IP input),[1],does not affect Cx43 expression in GSCs
same,Interaction of peptide with α-tubulin (co-IP),[2],robustly interacted with α-tubulin
